The text below walks through data of US20210300962A1, “LIPID PRODRUGS OF PREGNANE NEU[…] USES THEREOF” (PureTech LYT, Inc., priority 2018, published 2021).

In general, Cmax refers to the maximum level reached in the sampled fluid or tissue. As a reminder, the Tmax is the time from dosing to the highest level. In general, AUC(0-inf) refers to total exposure, with the tail of the curve extrapolated.

SMILES strings stand for the structures.

Data set [1] in a line: Rat pharmacokinetic studies: plasma allopregnanolone after oral prodrug or ALLO, and after IV ALLO. It is filed as in vivo, male Sprague-Dawley rats. As to the method: In order to assess the oral bioavailability of test compounds, pharmacokinetic studies were conducted using the following procedure. The day before drug administration, male Sprague-Dawley rats (240-320 g) were anesthetized and the carotid artery was cannulated. The rats were then allowed to regain consciousness and fasted overnight prior to the commencement of experiments with free access to water. The next morning, formulations containing parent compounds or prodrugs were administered via oral gavage or via the jugular vein cannula, and blood samples were collected from the carotid artery cannula from −5 min up to 24 h post dosing. During the blood sample collection period the rats had free access to water but remained fasted for a further 8 h following drug administration. In these allopregnanolone (ALLO) related studies, the blood samples were centrifuged at 4500×g for 5 min to separate plasma. Plasma samples were stored at −20° C. prior to assay by HPLC-MS-MS. The whole blood or plasma samples were assayed for free drug (i.e. non-glyceride associated drug) and were not hydrolized prior to assay (as was the case with the lymph samples).
FIG. 3 illustrates dose-normalized ALLO plasma concentrations following oral gavage of ALLO related formulations to conscious, carotid artery-cannulated male SD rats. The ALLO oral formulation for each rat contained 2 mg of parent ALLO (i.e., non-prodrug allopregnanolone) suspended in 2 ml of suspending vehicle (0.50 sodium carboxymethyl cellulose, 0.4% Tween 80 and 0.9% NaCl in water). Prodrug formulations for each rat contained 2 mg of the ALLO prodrug dispersed in 40 mg oleic acid, 25 mg Tween 80 and 2 ml PBS. Doses were normalized to a 2 mg/kg equivalent dose of ALLO. Data are shown as mean±SD n≥3 or mean±range when n=2. […] Doses are normalized to a 2 mg/kg equivalent ALLO dose and data are presented as mean±SD when n≥3 or mean±range when n=2.
Also shown (bottom) is the calculated area under the curve (AUC) over 0-24 h for each of the test compounds as a fraction of the IV-administered allpregnanolone control.

A short description of data set [2]: Dog pharmacokinetic studies: plasma ALLO after oral ALLO or prodrug, and after IV ALLO. Particulars: beagle dogs; for Vd: beagle, iv. It is filed as in vivo, male beagle dogs. As to the method:
For the dog studies, male beagle dogs (body weights between 9.1-11.7 kg) were held in a large-animal research facility prior to the commencement of studies. The dogs were fasted for 12 h up to 30 min prior to drug administration. At 30 minutes prior to drug dosing, each animal received ˜20 g of high fat food (Teklad, TD.07096), then each animal was offered 100 g of beef-flavored canned food. Food was removed immediately prior to dosing. Following the 4 hour sample collection, food was returned (any remaining canned food and 200 g of regular diet). Water was available ad libitum throughout the study for all dogs.
For oral administration, test compounds were prepared in a suitable formulation such as a long-chain lipid based self-emulsifying drug delivery system (SEDDS) consisting of 30.5% w/w soybean oil, 30.5% w/w Maisine-CC, 31.6% w/w Cremophor EL and 7.4% w/w ethanol. Formulations were filled into hard gelatin capsules. Each animal received 2 size 000 capsules that in total contained ALLO (at 1.5 mg/kg dose) or ALLO prodrug (at 5 mg/kg dose, equivalent to approx. 1.5 mg/kg parent ALLO) in 2 grams of SEDDS formulation. Compound dissolved in the formulation was administrated to the fed dog by placing the capsules as far posterior to the pharynx as possible, closing the mouth and rubbing the throat to stimulate swallowing. Subsequently 10 mL of water was administered orally via a syringe.
For the IV group, parent ALLO (0.5 mg/kg dose) was administered as an intravenous bolus (formulation contained ALLO at concentration of 1.5 mg/mL) by way of a percutaneous catheter placed in a peripheral vein, followed by a 2 mL flush with normal saline.
Blood samples (approx. 1.5 mL each) were taken via venepuncture of the cephalic vein 5 min prior to administration up to 48 hours post-dosing. During the blood sample collection period the animals had free access to water but remained fasted for a further 4 hours following drug administration.
Plasma was separated by centrifugation and aliquots of each plasma sample transferred into eppendorf tubes and stored at −80° C. prior to analysis.
Doses are normalized to a 1.5 mg/kg equivalent ALLO dose and data are presented as mean±SD (n=4). AUC was calculated using the trapezoidal method in PKsolver—non-compartment model. Statistical significance is defined as α<0.05 when using One-way ANOVA followed by Tukey's test (paired comparison).

A short description of data set [3]: Non-human primate pharmacokinetic studies: plasma ALLO after oral ALLO or prodrug, and after IV ALLO. It is filed as in vivo, male cynomolgus monkeys. Particulars: cynomolgus monkeys; for Vd: iv. As to the method:
For the non-human primate studies, male cynomolgus monkeys were held in a large-animal research facility prior to the commencement of studies. The monkeys were fasted overnight up to 30 min prior to drug administration. Thirty minutes prior to drug administration, each monkey received 30 mL of Ensure Milkshake via oral gavage and was allowed access to a normal ration of primate chow. The primate chow was removed at the time of drug administration and was then returned 4 hours after drug administration. Water was available ad libitum throughout the study for all monkeys.
Test compounds were prepared in a long-chain lipid-based self-emulsifying drug delivery system (SEDDS) consisting of 30.5% w/w soybean oil, 30.5% w/w Maisine-CC, 31.6% w/w Cremophor EL, and 7.4% w/w ethanol. Parent ALLO (i.e., non-prodrug allopregnanolone) was prepared in a formulation of 20% aqueous hydroxypropyl-p-cyclodextrin. Formulations were filled into hard gelatin capsules. Test compounds were dosed at 5 mg/kg, and parent ALLO was dosed at 1.5 mg/kg. Drug was administered in a single capsule followed by 10 mL of water by oral gavage. For the IV group, parent ALLO (0.5 mg/kg dose) was administered as an intravenous bolus (formulation contained ALLO at a concentration of 1.5 mg/mL) by way of a percutaneous catheter placed in a peripheral vein followed by a 2 mL flush with normal saline prior to removal of the catheter.
After oral administration, blood samples (approx. 1 mL each) were taken via venipuncture of a peripheral vein 5 min prior to administration up to 48 hours post-dosing. Blood samples were transferred into tubes containing dipotassium EDTA anticoagulant, and the tubes were placed on crushed ice until processing. Within 30 minutes of collection, the blood samples were processed to isolate plasma by centrifuging at 2200×g for 10 minutes at 5° C.±3° C. The plasma samples were stored in polypropylene tubes at −80° C. prior to analysis.
Doses are normalized to a 1.5 mg/kg equivalent ALLO dose and data are presented as mean±SD (n=6). AUC was calculated using the trapezoidal method in PKsolver—non-compartment model. Statistical significance is defined as α<0.05 when using One-way ANOVA followed by Tukey's test (paired comparison).

Turning to `CC(=O)[C@H]1CC[C@H]2[C@@H]3CC[C@H]4C[C@H](O)CC[C@]4(C)[C@H]3CC[C@]12C` [Allopregnanolone, 5α-pregnan-3α-ol-20-one], in data set [1] (male, Sprague-Dawley, plasma, 2 mg/kg, rat, IV, equivalent dose of allopregnanolone, n=1, read-out: AUC after intravenous administration), the AUC is about 1.45 µM·h. Besides, the Cmax entry in data set [1] (plasma Allo after oral gavage to rats, doses normalized to 2 mg/kg equivalent ALLO, mean±SD (n≥3) or mean±range (n=2)) is “below LOQ)”; in data set [2] (male, dog, plasma, 0.5 mg/kg, IV bolus ALLO, normalized to 1.5 mg/kg, mean±SD (n=4), read-out: Cmax (extrapolated C0)) it was 3.5 ± 0.572 µM; in data set [3] (male, cynomolgus monkey, plasma, 0.5 mg/kg, IV bolus ALLO, normalized to 1.5 mg/kg, mean±SD (n=6)), 4.45 ± 0.73 µM. The “plasma levels after oral administration” value in data set [1] (rat, oral parent allopregnanolone) is “below the limit of quantification”. For the same compound, the “Apparent BA” value in data set [2] (IV ALLO (reference)) turned out to be 100.0%; in data set [3] (IV ALLO (reference)), 100%. Also, the Vd came out at 14 ± 1.7 L/kg in data set [2] (male, dog, plasma, 0.5 mg/kg, IV ALLO, read-out: VSS (volume of distribution during the steady state phase)); 142 ± 29.5 L/kg in data set [2] (male, dog, plasma, 0.5 mg/kg, IV ALLO, read-out: VZ (volume of distribution during the elimination phase)); 2.6 ± 0.9 L/kg in data set [3] (male, cynomolgus monkey, plasma, 0.5 mg/kg, IV ALLO, read-out: VSS (volume of distribution during the steady state phase)); 26.9 ± 6.8 L/kg in data set [3] (male, cynomolgus monkey, plasma, 0.5 mg/kg, IV ALLO, read-out: VZ (volume of distribution during the elimination phase)). Further, the clearance in data set [2] (male, dog, plasma, 0.5 mg/kg, IV ALLO, read-out: Cl (clearance)) was determined as 160 ± 21.7 mL/min/kg; in data set [3] (male, cynomolgus monkey, plasma, 0.5 mg/kg, IV ALLO, read-out: Cl (clearance)) it was 42.2 ± 9 mL/min/kg. Besides, the Tmax came out at 0 h in data set [2] (male, dog, plasma, 0.5 mg/kg, IV bolus ALLO) and 4.8 min in data set [3] (male, cynomolgus monkey, plasma, 0.5 mg/kg, IV bolus ALLO). Moreover, the AUC(0-inf) is 0.498 ± 0.0633 µM·h in data set [2] (male, dog, plasma, 0.5 mg/kg, IV bolus ALLO, normalized to 1.5 mg/kg) and 1.93 ± 0.373 µM·h in data set [3] (male, cynomolgus monkey, plasma, 0.5 mg/kg, IV bolus ALLO, normalized to 1.5 mg/kg). Moreover, the half-life in data set [2] (male, dog, plasma, 0.5 mg/kg, IV bolus ALLO, read-out: T1/2 (elimination phase half-life) (converted)) is 10.3 ± 0.8 h; in data set [3] (male, cynomolgus monkey, plasma, 0.5 mg/kg, IV bolus ALLO, read-out: T1/2 (terminal phase half-life) (converted)) it was 7.4 ± 1.2 h.
